The subject of data set [1] is Rattus norvegicus. To be noted: for LD50 / LC50: acute.
The test system of another data set is Oryctolagus sp. To be noted: for LD50: acute.
Data set [2] relates to Rattus norvegicus. As to conditions: subchronic; oral; gavage; M/F; hepatic lesions.
The next data set deals with Mus musculus. To be noted: short-term; duration: 14 days; oral; gavage; M; CD1; hepatic.
Data set [3] relates to Rattus norvegicus. To be noted: chronic; duration: 2 years; oral; gavage; M/F; Fischer 344; hepatic.
The test system of data set [4] is Rattus norvegicus. As to conditions: subchronic; duration: 13 weeks; oral; gavage; M/F; Fischer 344; Deaths + Histopathology: Liver-Vacuolar change Liver/bile duct- Hyperplasia Liver/centrilobular - necrosis Kidney-Toxic nephropathy Salivary….
The mark [5] stands for this setting: developmental, duration: 14 days, oral, gavage, Wistar.
[6] abbreviates: short-term, duration: 12 days, inhalation, F, Crl:CD1.
Setting [7] is: short-term, duration: 28 days, oral, gavage, Wistar.
Setting [8] is: reproduction developmental, duration: 13 days, oral, gavage, F, New Zealand.
Where [9] appears, read: reproduction developmental, oral, diet, Sprague-Dawley, generation: F1.

Values joined by “and” are separate entries in the source; they are usually repeats but may differ in a detail not shown here. Equal entries are not always repeated.

By LD50 is commonly meant the dose at which mortality reaches 50%. A low value points to greater toxicity. Usually LOAEL stands for the lowest dose or exposure tested at which an adverse effect was seen. The term NOAEL denotes the highest tested level that showed no adverse finding.

For `O=C(OCC1CC=CCC1)C1CC=CCC1` (stereo not drawn), the LD50 in the data set on Rattus norvegicus [1] (oral, gavage) was 2840 mg/kg; in the data set on Rattus norvegicus [1] (oral, gavage, Sprague-Dawley) it was ≥ 1360 mg/kg and ≤ 2390 mg/kg; in the data set with Oryctolagus sp. (dermal, occlusive, New Zealand), 5010 mg/kg and ≥ 12300 mg/kg and ≤ 13400 mg/kg.
As to `C1OCOCO1` [1,3,5-Trioxane], the LC50 in the data set on Rattus norvegicus [1] (inhalation) was more than 39200 mg/m3. The LD50 is 8190 mg/kg in the data set with Rattus norvegicus [1] (oral, gavage) and more than 3980 mg/kg with Oryctolagus sp. (dermal). Besides, the LOAEL in the data set with Rattus norvegicus [1] (setting [5]) was 315 mg/kg-day; in the data set with Rattus norvegicus [1] (reproduction developmental, duration: 14 days, oral, gavage, F, Wistar) it was 100 mg/kg-day; in the data set with Rattus norvegicus [1] (setting [6]), 3630 mg/m3; in the data set on Rattus norvegicus [1] (setting [7]), 1000 mg/kg-day. Moreover, the NOAEL with Rattus norvegicus [1] (setting [5]) came to 100 mg/kg-day; with Rattus norvegicus [1] (setting [6]), 379 mg/m3; in the data set on Rattus norvegicus [1] (setting [7]) it was 200 mg/kg-day.
Turning to `Clc1ccccn1` [2-Chloropyridine], the LD50 was 342 mg/kg with Rattus norvegicus [1] (oral, gavage) and less than 200 mg/kg in the data set with Oryctolagus sp. (dermal).
In turn, `C=CC(C)C#N` (stereo not drawn) [2-Methyl-3-butenenitrile] gave an LC50 in the data set on Rattus norvegicus [1] (inhalation, Sprague-Dawley) of 9950 mg/m3. Moreover, the LD50 in the data set on Oryctolagus sp. (dermal, occlusive, New Zealand) worked out at 482 mg/kg.
Take `CC(CO)CO` [2-Methylpropane-1,3-diol]: the LC50 with Rattus norvegicus [1] (Inhalation, Wistar) is more than 5100 mg/m3. The 50% lethal dose (LD50) with Rattus norvegicus [1] (oral, gavage, Wistar) is more than 5000 mg/kg; in the data set on Oryctolagus sp. (dermal, New Zealand), more than 2000 mg/kg. The NOAEL in the data set with Rattus norvegicus [1] (developmental, duration: 20 days, oral, gavage, Wistar) worked out at 1000 mg/kg-day; in the data set with Rattus norvegicus [1] (reproduction developmental, duration: 20 days, oral, gavage, F, Wistar), 1000 mg/kg-day; in the data set with Rattus norvegicus [1] (reproduction developmental, duration: 20 days, oral, gavage, Wistar, generation: F1), 1000 mg/kg-day; in the data set on Rattus norvegicus [1] (reproduction developmental, duration: 90 days, oral, gavage, Wistar, generation: F0), 1000 mg/kg-day; in the data set with Rattus norvegicus [1] (short-term, duration: 14 days, oral, gavage, Wistar) it was 1000 mg/kg-day; in the data set with Rattus norvegicus [1] (subchronic, duration: 90 days, oral, gavage, Wistar), 1000 mg/kg-day. The NOAEL is 1000 mg/kg-day in the data set on Oryctolagus sp. (reproduction developmental, duration: 28 days, oral, gavage, F, New Zealand) and 1000 mg/kg-day in the data set on Oryctolagus sp. (reproduction developmental, duration: 28 days, oral, gavage, New Zealand, generation: F1).
Turning to `CCCCNC(=O)OCC#CI` [3-Iodo-2-propynyl-N-butylcarbamate], the LD50 with Rattus norvegicus [1] (oral, gavage, Sprague-Dawley) is 1800 mg/kg and 1470 mg/kg and 1060 mg/kg. The NOAEL with Oryctolagus sp. (setting [8]) is 20 mg/kg-day; in the data set on Oryctolagus sp. (reproduction developmental, duration: 13 days, oral, gavage, New Zealand, generation: F1) it was 50 mg/kg-day; with Oryctolagus sp. (subchronic, duration: 90 days, oral, diet, New Zealand), 16.5 mg/kg-day.
Regarding `CCCCN(CCCC)C(=S)SCSC(=S)N(CCCC)CCCC` [4,4'-Methylene bis(dibutyldithiocarbamate)], the LD50 was 16000 mg/kg with Rattus norvegicus [1] (oral) and more than 2000 mg/kg in the data set with Oryctolagus sp. (dermal). Also, the NOAEL in the data set with Rattus norvegicus [1] (reproduction developmental, oral, diet, Sprague-Dawley, generation: F0) was 1000 ppm; in the data set on Rattus norvegicus [1] (setting [9]) it was more than 20000 ppm. In the data set with Rattus norvegicus [1] (setting [9]), the LOAEL was more than 20000 ppm.
As for `CCCCCCCC/C=C/CCCCCCCCN.F` [9-Octadecen-1-amine, hydrofluoride], the NOAEL in the data set with Rattus norvegicus [1] (reproduction developmental, oral, gavage, Long-Evans, generation: F0) was 6 mg/kg-day; in the data set on Rattus norvegicus [1] (reproduction developmental, oral, gavage, Long-Evans, generation: F1) it was 30 mg/kg-day. The compound also displayed an LOAEL in the data set on Oryctolagus sp. (setting [8]) of 1.2 mg/kg-day.
With `ClC(Br)Br` [Chlorodibromomethane], the LOAEL in the data set on Rattus norvegicus [2] was determined as 60 mg/kg-day; in the data set with Mus musculus, 37 mg/kg-day; in the data set with Rattus norvegicus [3] it was 40 mg/kg-day. Further, the NOEL with Rattus norvegicus [2] is 21.4 mg/kg-day and 30 mg/kg-day; with Rattus norvegicus [4] it was 30 mg/kg-day.
As to `O=c1[nH]c(=O)[nH]c(=O)[nH]1` [Cyanuric acid], the LD50 is more than 5000 mg/kg in the data set on Rattus norvegicus [1] (oral, gavage, Sprague-Dawley) and more than 5000 mg/kg in the data set on Oryctolagus sp. (dermal, occlusive, New Zealand).
With `ClC1=C(Cl)C2(Cl)C3CCC4C(CCC3C1(Cl)C2(Cl)Cl)C1(Cl)C(Cl)=C(Cl)C4(Cl)C1(Cl)Cl` (stereo not drawn) [Dechlorane Plus], the LC50 in the data set on Rattus norvegicus [1] (inhalation, particle) is more than 300 µg/mL; with Rattus norvegicus [1] (inhalation, particle, Charles-River), more than 2.25 µg/mL. Also, the LD50 was more than 3160 mg/kg with Rattus norvegicus [1] (oral, gavage, Sprague-Dawley); more than 25000 mg/kg in the data set with Rattus norvegicus [1] (oral, gavage, Wistar); more than 8000 mg/kg in the data set with Oryctolagus sp. (dermal). Further, in the data set with Rattus norvegicus [1] (reproduction developmental, duration: 13 weeks, oral, diet, Crl, generation: F0), the NOAEL came to 100000 ppm. In the data set with Rattus norvegicus [1] (reproduction developmental, duration: 28 days, inhalation, particle, Charles River COB, generation: F0), this compound came in with an LOAEL of 0.64 mg/L. The compound further registered an LOAEC in the data set with Oryctolagus sp. (reproduction developmental, duration: 4 weeks, dermal, non-occlusive, New Zealand, generation: F0) of 2000 mg/kg-day.
`CC(C)CCCCCCc1cccc2c(CCCCCCC(C)C)cccc12` [Diisononylnaphthalene]: the LC50 in the data set with Rattus norvegicus [1] (Inhalation, Wistar) was more than 17 µg/mL. For the same compound, the LD50 is more than 5000 mg/kg in the data set with Rattus norvegicus [1] (oral, gavage, Wistar) and more than 20000 mg/kg in the data set on Oryctolagus sp. (dermal, New Zealand).

For the origin of these results see EPA's ToxValDB 9.5.
